Data set [1] has as its system A549 cells. The data set is described as follows: MTT cytotoxicity test on A549 cells. It is filed as cell-based. The following applies: Homo sapiens. As for the experimental part:
(§1) Therefore, compounds showing the highest cytotoxicity (8, 9, 18, 22, 24–27) were further tested on normal human dermal fibroblasts (HDF), A549, Caco-2, and HeLa cells to compare their activity after 24 h and 72 h culture (Figure 5 and Figure 6).
(§2) 2-Acetylbenzofuran, 2-acetylbenzothiophene, 2-acetylthiophene, 2-acetylthiazole, cyclohexanone and acetophenone derivatives were used for in vitro cytotoxicity assays with cervical adenocarcinoma (HeLa), human dermal fibroblasts (HDF), lung epithelial carcinoma (A549), and intestinal epithelial carcinoma (Caco-2) cell lines. A549, Caco-2, and HeLa cells were obtained from Sigma-Aldrich (Germany), and HDF from Biokom (Poland). All cell lines were cultured according to the manufacturer’s protocol under sterile conditions in the presence of 4.9% CO2 at 37 °C. A549 cells were grown in F-12 medium containing 10% fetal bovine serum (FBS) and 1% penicillin/streptomycin. HDF cells were grown in DMEM (low glucose, with 2 mM glutamine) medium containing 10% fetal bovine serum (FBS) and 1% penicillin/streptomycin. Caco-2 cells were grown in EMEM medium containing 10% fetal bovine serum (FBS), 1% non-essential amino acids (NEAA) and 1% penicillin/streptomycin. HeLa cells were grown in DMEM (low glucose, with 2 mM glutamine) medium containing 10% fetal bovine serum (FBS) and 1% gentamycin. After thawing, cells were cultured until they reached sub-confluent state. The cells were then detached using 0.25% trypsin solution and seeded into 24-well or 96-well plates (3 × 10^3 cells per well) for further experiments. After 24 h growth, the tested compounds were added to the cell cultures in concentrations of 1, 10, 50, 100 and 250 μg mL^−1, respectively, and incubated for the next 24 h or 72 h. The MTT test, based on the ability to reduce 3-(4,5-dimethylthiazol 2-yl)-2,5-diphenyltetrazolium bromide (MTT) by mitochondrial dehydrogenases, was performed in triplicate to assess cell metabolic activity and viability. The plates were then read spectrophotometrically at a wavelength of 570 nm. The dose-dependence curves were charted directly on x-/y-axes, with the drug dosages on the x-axis and the cell viability (percentage of viable cells) on the y-axis.
A general note: Tetrazolium assays rely on reduction of a dye to a coloured formazan, in cell work by metabolically active cells.

The subject of data set [2] is human dermal fibroblasts (HDF). Nature of the data set: MTT cytotoxicity test on HDF cells. It is filed as cell-based. Conditions: Homo sapiens, Fibroblast, HDF, MTT. The procedure: as §1, §2
Data set [3] is described as follows: MTT cytotoxicity test on HDF cells. The following applies: human, human dermal fibroblasts (HDF); 50 μg/mL, 24 h exposure. It is filed as cell-based, human. The procedure: as §1, §2
In data set [4] the test system is cells. Nature of the data set: LDH activity test (cell-membrane damage), cell lines not given. It is filed as cell-based, human. Conditions: exposure at EC50 concentration, 24 h and 72 h; positive control 1% Triton X-100 = 100%. The text has this:
(§3) Summing up, only a few of the 27 tested derivatives could be promising as potential anti-cancer agents. Two of them—compound 22 and 27—would be a good starting point for future research. Therefore, we sought to compare their ability to induce necrotic cell death. Since necrotic cell death relies on the disruption of cell membrane, it results in the extracellular release of cytoplasmic enzymes such as lactate dehydrogenase (LDH). Thus, we compared LDH activity in the extracellular environment (culture media).
(§4) Additionally, the lactate dehydrogenase (LDH) activity test reflecting cell-membrane damage was performed for cells exposed to selected tested compounds. LDH activity was determined in the culture medium by measuring the decrease in NADH (nicotinamide adenine dinucleotide, reduced disodium salt). The decrease in the amount of NADH was directly correlated to the increase in the number of damaged cells. To measure LDH activity, the culture medium was collected from the wells with cells exposed to concentrations equal to the EC50 values of tested compounds after short- (24 h), and long-time (72 h) exposure. The LDH activity test was performed as follows: 25 μL of NADH (2.5 mg/mL) and 25 μL of sodium pyruvate (2.5 mg/mL) were added to 150 μL of the collected culture medium. Absorbance at 340 nm was spectrophotometrically measured. […]

The test system of data set [5] is Caco-2 cells. Nature of the data set: MTT cytotoxicity test on Caco-2 cells. It counts as cell-based, human. As for the experimental part: as §1, §2
Data set [6] relates to HeLa cells. Nature of the data set: MTT cytotoxicity test on HeLa cells. It counts as cell-based, human. As for the experimental part:
Cytotoxic properties of all compounds were determined by 3-(4,5-dimethylthiazol-2-yl)-2,5-diphenyltetrazolium bromide (MTT) test reflecting cell viability. Cytotoxicity screening of all 27 compounds—2-acetylbenzofuran oxime (6) and its oxime ethers (1–5), as well as: 2-acetylthiophene (7–17), cyclohexanone (18–20), acetophenone (21–23), thiazole (24–25), benzothiazole (26–27) oxime ethers—was performed in vitro on human cervical adenocarcinoma (HeLa) cells as the representatives of cancerous cells.
as §2

Data set [7] has as its system HeLa cells. The data set is described as follows: LDH activity test (cell-membrane damage), HeLa cells. It is filed as cell-based. The following applies: exposure at EC50 concentration.
Excerpt: as §3, §4

[8] abbreviates: A549, 24 h, MTT, read-out: EC50 Value A549 24 h.
[9] abbreviates: A549, 72 h, MTT, read-out: EC50 Value A549 72 h.
The mark [10] stands for this setting: 24 h, read-out: EC50 Value HDF 24 h.
Setting [11] is: 72 h, read-out: EC50 Value HDF 72 h.
The mark [12] stands for this setting: Homo sapiens, Caco-2, 24 h, MTT, read-out: EC50 Value Caco-2 24 h.
Setting [13] is: Homo sapiens, Caco-2, 72 h, MTT, read-out: EC50 Value Caco-2 72 h.
The mark [14] stands for this setting: Homo sapiens, HeLa, 24 h, HeLa, 24 h culture, MTT, read-out: EC50 for HeLa Cells.
[15] abbreviates: Homo sapiens, HeLa, 72 h, HeLa, 72 h, MTT, read-out: EC50 Value HeLa 72 h.

As a reminder, the EC50 is the concentration that produces a half-maximal response. By viability is commonly meant a read-out of living cells in per cent, often relative to untreated cells. A high value points to less harm to the cells.

≈ marks a conversion by molar mass, not a printed value. Where “and” joins values, the source holds several entries; their conditions need not be identical. Equal values may be shown once. Read-outs that look alike come from different tables or passages of the source.

With `C/C(=N\OCCN1CCOCC1)c1ccccc1` [Compound 22, (E)-acetophenone O-2-morpholinoethyl oxime], the EC50 in data set [1] (setting [8]) is 10.2 µg/mL and 40 µM; in data set [1] (setting [9]) it was 30 µM; in data set [1] (A549, 72 h, read-out: EC50 A549), around 30 µM; in data set [2] (setting [10]), 27.3 µg/mL and 110 µM; in data set [2] (setting [11]), 8.04 µg/mL and 30 µM; in data set [5] (setting [12]), 9.45 µg/mL and 40 µM. Besides, the EC50 is 30 µM in data set [5] (setting [13]); around 30 µM in data set [5] (Homo sapiens, Caco-2, 72 h, read-out: EC50 Caco-2); 23.1 µg/mL and 90 µM in data set [6] (setting [14]); 30 µM in data set [6] (setting [15]); around 30 µM in data set [6] (Homo sapiens, HeLa, 72 h, HeLa, 72 h, read-out: EC50 HeLa). Further, the viability at 50 µg/mL in data set [1] (A549, 50 μg/mL, 24 h exposure) is around 20%; in data set [5] (Homo sapiens, Caco-2, 50 μg/mL, 24 h exposure), around 20%; in data set [6] (Homo sapiens, HeLa, 50 μg/mL, 24 h exposure), around 20%. The same compound yielded a viability at 24 h, 50 μg/mL in data set [3] of around 20%. In data set [4], the “increase in LDH activity outside the cells (of positive control)” value is given as at most 20%. In data set [6] (100–250 μg/mL, MTT), the “viability of HeLa cells (of control)” value was “below 20%”.
With `COc1ccc(CO/N=C(\C)c2cc3ccccc3s2)cc1` [Compound 27, (E)-1-(benzothiophene-2-yl)ethanone O-4-methoxybenzyl oxime], the EC50 in data set [1] (setting [8]) was > 250 µg/mL and > 800 µM; in data set [1] (setting [9]), 143 µg/mL and 460 µM; in data set [2] (setting [10]) it was 150 µg/mL and 480 µM; in data set [2] (setting [11]), 140 µg/mL and 450 µM; in data set [5] (setting [12]) it was 122 µg/mL and 390 µM; in data set [5] (setting [13]), 116 µg/mL and 370 µM. Besides, the EC50 is 93.8 µg/mL and 300 µM in data set [6] (setting [14]); 28 µg/mL and 90 µM in data set [6] (setting [15]). Besides, the “membrane damage and release of LDH” value in data set [7] is “extreme membrane damage and release of LDH”. For the same compound, in data set [5] (Caco-2, 72 h, MTT), the “EC50 Value Caco-2 72 h” value amounted to 116.47 µg/mL (≈ 374 µM). For the same compound, in data set [6] (HeLa, 72 h, MTT), the “EC50 Value HeLa 72 h” value stood at 27.9 µg/mL (≈ 89.6 µM).

The record behind these values is article PMC8878717, “The Oxime Ethers with Heterocyclic, Alicyclic and Aromatic Moiety as Potential Anti-Cancer Agents” (Molecules, 2022).
